Measurements from patent publication US11891365B2, “3-alkyl-4-amido-bicyclic [4,5,0] hydroxamic acids as HDAC inhibitors” (Valo Health, Inc., priority 2015, dated 2024).

Each molecule was assayed against T1, Full length human recombinant HDAC6 protein (Homo sapiens, UniProt Q9UBN7) (assay: In vitro histone deacetylase assay: enzymatic HDAC6 electrophoretic mobility shift assay). Details: 1 nM enzyme, 2 μM peptide substrate RHKK(Ac)-NH2, 25° C., 12 concentrations; read-out: Inhibitory Concentration (IC50) Values against HDAC6, Activity Range.
T1 sequence (Q9UBN7 1-1215): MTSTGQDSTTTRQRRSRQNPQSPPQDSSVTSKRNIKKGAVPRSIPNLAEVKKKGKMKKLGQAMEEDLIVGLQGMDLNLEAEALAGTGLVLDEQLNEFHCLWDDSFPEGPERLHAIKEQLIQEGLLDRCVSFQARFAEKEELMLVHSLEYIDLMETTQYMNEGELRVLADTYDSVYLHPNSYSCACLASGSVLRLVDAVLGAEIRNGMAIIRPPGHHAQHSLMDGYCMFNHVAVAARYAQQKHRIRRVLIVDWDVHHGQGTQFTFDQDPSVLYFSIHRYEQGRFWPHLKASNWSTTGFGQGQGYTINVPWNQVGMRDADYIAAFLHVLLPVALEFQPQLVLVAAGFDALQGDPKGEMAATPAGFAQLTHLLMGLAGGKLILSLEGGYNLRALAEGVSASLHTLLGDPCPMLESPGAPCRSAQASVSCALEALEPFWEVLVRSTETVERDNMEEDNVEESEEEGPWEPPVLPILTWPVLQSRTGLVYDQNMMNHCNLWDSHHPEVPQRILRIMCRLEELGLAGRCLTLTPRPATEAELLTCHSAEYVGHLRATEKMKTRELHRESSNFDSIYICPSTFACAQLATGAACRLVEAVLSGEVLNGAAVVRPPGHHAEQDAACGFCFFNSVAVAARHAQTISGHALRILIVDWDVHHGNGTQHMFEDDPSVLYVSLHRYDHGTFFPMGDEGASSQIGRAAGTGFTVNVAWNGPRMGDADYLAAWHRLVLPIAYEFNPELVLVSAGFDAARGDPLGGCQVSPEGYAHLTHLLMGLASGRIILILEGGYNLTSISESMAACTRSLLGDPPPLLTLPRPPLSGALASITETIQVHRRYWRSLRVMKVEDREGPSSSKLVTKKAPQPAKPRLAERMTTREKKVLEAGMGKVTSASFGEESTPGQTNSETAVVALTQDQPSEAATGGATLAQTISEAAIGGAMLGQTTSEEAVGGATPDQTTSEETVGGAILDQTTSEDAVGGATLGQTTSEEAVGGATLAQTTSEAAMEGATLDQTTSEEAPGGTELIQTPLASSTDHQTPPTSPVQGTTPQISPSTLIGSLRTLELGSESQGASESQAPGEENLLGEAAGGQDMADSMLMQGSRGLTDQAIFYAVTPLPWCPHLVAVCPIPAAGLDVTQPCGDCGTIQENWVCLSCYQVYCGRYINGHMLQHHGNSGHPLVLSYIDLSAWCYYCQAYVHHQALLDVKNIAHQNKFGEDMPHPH
Format: biochemical
Molecule `COCC1(C(=O)N2CCOc3cc(C(=O)NO)ccc3C2)CC1` [N-hydroxy-4-(1-(methoxymethyl)cyclopropane-1-carbonyl)-2,3,4,5-tetrahydrobenzo[f][1,4]oxazepine-8-carboxamide] has an IC50 of at most 100 nM. Work on `O=C(NO)c1ccc2c(c1)OCCN(C(=O)C1(S(=O)(=O)c3ccccc3)CC1)C2` [N-hydroxy-4-(1-(phenylsulfonyl)cyclopropane-1-carbonyl)-2,3,4,5-tetrahydrobenzo[f][1,4]oxazepine-8-carboxamide] yielded an IC50 of at most 100 nM. `O=C(NO)c1ccc2c(c1)OCCN(C(=O)C1(c3cnccn3)CC1)C2` [N-hydroxy-4-(1-(pyrazin-2-yl)cyclopropane-1-carbonyl)-2,3,4,5-tetrahydrobenzo[f][1,4]oxazepine-8-carboxamide] showed an IC50 of at most 100 nM. In the case of `O=C(NO)c1ccc2c(c1)OCCN(C(=O)C1(c3ccccn3)CC1)C2` [N-hydroxy-4-(1-(pyridin-2-yl)cyclopropane-1-carbonyl)-2,3,4,5-tetrahydrobenzo[f][1,4]oxazepine-8-carboxamide], the IC50 is reported as at most 100 nM. `O=C(NO)c1ccc2c(c1)OCCN(C(=O)C1(c3ccncc3)CC1)C2` [N-hydroxy-4-(1-(pyridin-4-yl)cyclopropane-1-carbonyl)-2,3,4,5-tetrahydrobenzo[f][1,4]oxazepine-8-carboxamide] showed an IC50 of at most 100 nM. `O=C(NO)c1ccc2c(c1)OCCN(C(=O)C1(c3cccs3)CC1)C2` [N-hydroxy-4-(1-(thiophen-2-yl)cyclopropane-1-carbonyl)-2,3,4,5-tetrahydrobenzo[f][1,4]oxazepine-8-carboxamide] gave an IC50 of at most 100 nM. For `O=C(NO)c1ccc2c(c1)OCCN(C(=O)C1(O)CC1)C2` [N-hydroxy-4-(1-hydroxycyclopropane-1-carbonyl)-2,3,4,5-tetrahydrobenzo[f][1,4]oxazepine-8-carboxamide], the IC50 was over 500 nM. `COC1(C(=O)N2CCOc3cc(C(=O)NO)ccc3C2)CCC1` [N-hydroxy-4-(1-methoxycyclobutane-1-carbonyl)-2,3,4,5-tetrahydrobenzo[f][1,4]oxazepine-8-carboxamide] was tested, and the IC50 was at most 100 nM. With `COC1(C(=O)N2CCOc3cc(C(=O)NO)ccc3C2)CC1` [N-hydroxy-4-(1-methoxycyclopropane-1-carbonyl)-2,3,4,5-tetrahydrobenzo[f][1,4]oxazepine-8-carboxamide] the IC50 was at most 100 nM. `Cn1c(C(=O)N2CCOc3cc(C(=O)NO)ccc3C2)cc2ccccc21` [N-hydroxy-4-(1-methyl-1H-indole-2-carbonyl)-2,3,4,5-tetrahydrobenzo[f][1,4]oxazepine-8-carboxamide] gave an IC50 of at most 100 nM. In the case of `Cn1ccc(C(=O)N2CCOc3cc(C(=O)NO)ccc3C2)n1` [N-hydroxy-4-(1-methyl-1H-pyrazole-3-carbonyl)-2,3,4,5-tetrahydrobenzo[f][1,4]oxazepine-8-carboxamide], the IC50 is reported as at most 100 nM. `Cn1cccc1C(=O)N1CCOc2cc(C(=O)NO)ccc2C1` [N-hydroxy-4-(1-methyl-1H-pyrrole-2-carbonyl)-2,3,4,5-tetrahydrobenzo[f][1,4]oxazepine-8-carboxamide] showed an IC50 of at most 100 nM. With `Cn1cc(C(=O)N2CCOc3cc(C(=O)NO)ccc3C2)ccc1=O` [N-hydroxy-4-(1-methyl-6-oxo-1,6-dihydropyridine-3-carbonyl)-2,3,4,5-tetrahydrobenzo[f][1,4]oxazepine-8-carboxamide] the IC50 was over 500 nM. Work on `CC1(C(=O)N2CCOc3cc(C(=O)NO)ccc3C2)CCC1` [N-hydroxy-4-(1-methylcyclobutane-1-carbonyl)-2,3,4,5-tetrahydrobenzo[f][1,4]oxazepine-8-carboxamide] yielded an IC50 of at most 100 nM. Work on `CC1(C(=O)N2CC(=O)Nc3ccc(C(=O)NO)cc3C2)CCC1` [N-hydroxy-4-(1-methylcyclobutane-1-carbonyl)-2-oxo-2,3,4,5-tetrahydro-1H-benzo[e][1,4]diazepine-7-carboxamide] yielded an IC50 of 100 to 500 nM. `CC1(C(=O)N2CCOc3cc(C(=O)NO)ccc3C2)CCCCC1` [N-hydroxy-4-(1-methylcyclohexane-1-carbonyl)-2,3,4,5-tetrahydrobenzo[f][1,4]oxazepine-8-carboxamide] gave an IC50 of at most 100 nM. `CC1(C(=O)N2CCOc3cc(C(=O)NO)ccc3C2)CCCC1` [N-hydroxy-4-(1-methylcyclopentane-1-carbonyl)-2,3,4,5-tetrahydrobenzo[f][1,4]oxazepine-8-carboxamide] showed an IC50 of at most 100 nM. Work on `CC1(C(=O)N2CCOc3cc(C(=O)NO)ccc3C2)CC1` [N-hydroxy-4-(1-methylcyclopropane-1-carbonyl)-2,3,4,5-tetrahydrobenzo[f][1,4]oxazepine-8-carboxamide] yielded an IC50 of at most 100 nM. Molecule `O=C(NO)c1ccc2c(c1)OCCN(C(=O)C1(Oc3ccccc3)CC1)C2` [N-hydroxy-4-(1-phenoxycyclopropane-1-carbonyl)-2,3,4,5-tetrahydrobenzo[f][1,4]oxazepine-8-carboxamide] has an IC50 of 100 to 500 nM. With `O=C(NO)c1ccc2c(c1)OCCN(C(=O)C1(c3ccccc3)CCC1)C2` [N-hydroxy-4-(1-phenylcyclobutane-1-carbonyl)-2,3,4,5-tetrahydrobenzo[f][1,4]oxazepine-8-carboxamide] the IC50 was at most 100 nM. `O=C(NO)c1ccc2c(c1)OCCN(C(=O)C1(c3ccccc3)CC1)C2` [N-hydroxy-4-(1-phenylcyclopropane-1-carbonyl)-2,3,4,5-tetrahydrobenzo[f][1,4]oxazepine-8-carboxamide] gave an IC50 of at most 100 nM. Molecule `O=C(NO)c1ccc2c(c1)OCCN(C(=O)c1ccc3[nH]ccc3c1)C2` [N-hydroxy-4-(1H-indole-5-carbonyl)-2,3,4,5-tetrahydrobenzo[f][1,4]oxazepine-8-carboxamide] has an IC50 of at most 100 nM. `CS(=O)(=O)N1CCC(CC(=O)N2CCOc3cc(C(=O)NO)ccc3C2)CC1` [N-hydroxy-4-(2-(1-(methylsulfonyl)piperidin-4-yl)acetyl)-2,3,4,5-tetrahydrobenzo[f][1,4]oxazepine-8-carboxamide] was tested, and the IC50 was over 500 nM. `COc1ccccc1C(C)(C)C(=O)N1CCOc2cc(C(=O)NO)ccc2C1` [N-hydroxy-4-(2-(2-methoxyphenyl)-2-methylpropanoyl)-2,3,4,5-tetrahydrobenzo[f][1,4]oxazepine-8-carboxamide] gave an IC50 of over 500 nM. Molecule `Cc1nc(CC(=O)N2CCOc3cc(C(=O)NO)ccc3C2)cs1` [N-hydroxy-4-(2-(2-methylthiazol-4-yl)acetyl)-2,3,4,5-tetrahydrobenzo[f][1,4]oxazepine-8-carboxamide] has an IC50 of 100 to 500 nM. `O=C(NO)c1ccc2c(c1)OCCN(C(=O)Cn1cccc(C(F)(F)F)c1=O)C2` [N-hydroxy-4-(2-(2-oxo-3-(trifluoromethyl)pyridin-1(2H)-yl)acetyl)-2,3,4,5-tetrahydrobenzo[f][1,4]oxazepine-8-carboxamide] was tested, and the IC50 was 100 to 500 nM. Molecule `O=C(NO)c1ccc2c(c1)OCCN(C(=O)C(c1ccccc1)N1CCCCC1=O)C2` (stereo not drawn) [N-hydroxy-4-(2-(2-oxopiperidin-1-yl)-2-phenylacetyl)-2,3,4,5-tetrahydrobenzo[f][1,4]oxazepine-8-carboxamide] has an IC50 of 100 to 500 nM. Work on `O=C(NO)c1ccc2c(c1)OCCN(C(=O)Cc1ccccc1Oc1ccccc1)C2` [N-hydroxy-4-(2-(2-phenoxyphenyl)acetyl)-2,3,4,5-tetrahydrobenzo[f][1,4]oxazepine-8-carboxamide] yielded an IC50 of over 500 nM. With `COc1cccc(C(C)(C)C(=O)N2CCOc3cc(C(=O)NO)ccc3C2)c1` [N-hydroxy-4-(2-(3-methoxyphenyl)-2-methylpropanoyl)-2,3,4,5-tetrahydrobenzo[f][1,4]oxazepine-8-carboxamide] the IC50 was 100 to 500 nM. Work on `O=C(NO)c1ccc2c(c1)OCCN(C(=O)Cc1ccc(C(F)(F)F)cc1)C2` [N-hydroxy-4-(2-(4-(trifluoromethyl)phenyl)acetyl)-2,3,4,5-tetrahydrobenzo[f][1,4]oxazepine-8-carboxamide] yielded an IC50 of over 500 nM. `O=C(NO)c1ccc2c(c1)OCCN(C(=O)C(c1ccccc1)N1CCC(O)CC1)C2` (stereo not drawn) [N-hydroxy-4-(2-(4-hydroxypiperidin-1-yl)-2-phenylacetyl)-2,3,4,5-tetrahydrobenzo[f][1,4]oxazepine-8-carboxamide] gave an IC50 of 100 to 500 nM. For `CC(C)COc1ccc(C(C)(C)C(=O)N2CCOc3cc(C(=O)NO)ccc3C2)cc1` [N-hydroxy-4-(2-(4-isobutoxyphenyl)-2-methylpropanoyl)-2,3,4,5-tetrahydrobenzo[f][1,4]oxazepine-8-carboxamide], the IC50 was 100 to 500 nM. `COc1ccc(OCC(=O)N2CCOc3cc(C(=O)NO)ccc3C2)cc1` [N-hydroxy-4-(2-(4-methoxyphenoxy)acetyl)-2,3,4,5-tetrahydrobenzo[f][1,4]oxazepine-8-carboxamide] was tested, and the IC50 was at most 100 nM.
